Where a name gives a salt, the structure may show the parent alone.
Tested on: T1, Bromelain
T1 construct: commercial native preparation
Experiment: absorbance at […] nm, hydrolysis
Assay type: biochemical
Conditions: free enzyme; 37 °C; pH not told; substrate of the kinetics taken from the activity assay

Km: 930 ± 40 µM
SMILES: CCOC(=O)[C@H](CCCN=C(N)N)NC(=O)c1ccccc1 [N-Benzoyl-L-arginine ethyl ester hydrochloride]

Reference: article PMC9080259, “Dual-cycle immobilization to reuse both enzyme and support by reblossoming enzyme–inorganic hybrid nanoflowers” (RSC Advances, 2018)
